Assay results published in patent US9145411B2, “Substituted amino-pyrimidine derivatives” (Asana Biosciences, LLC, priority 2012, dated 2015).

Assays:
pAKT (S473) = experiment: In vivo PK/PD study, U87MG tumor xenograft, pAKT (S473); settings: U87MG tumor-bearing xenograft mice, 50 mg/kg po
Protocol: PC3 cells are cultured at 37° C. in a 5% CO2 incubator using Hams F12 K medium. Ten million (10^7) cells are injected subcutaneously to the right flank region of athymic male mice (Harlan, age: 6-7 weeks, weight: about 20 g). Tumor bearing mice are randomized when the tumor volume reaches about 250 mm^3 and three mice are used per each time point. Test compounds of formula (I) are typically formulated in 40% HPCD in 1×PBS, pH 7.4 or in 10% Ethanol/40% Solutol/50% 50 mM aq. methanesulfonic acid and dosed orally at 50 mg/kg single dose (dose volume—10 mL/kg). Plasma and tumor samples are collected at 0 (vehicle control animals), 1, 4 and 24 hours post dosing. Blood is drawn (retro orbital) to a tube containing 0.2% EDTA for plasma collection. […] Tumor and plasma drug concentrations are measured for PK analysis using LC-MS.
Snap frozen tumor samples are pulverized in a mortar (Belart) containing liquid nitrogen and tumor powder is stored at −80° C. until analysis. […] The detection for pAKT is based on chemiluminescence and pS6RP is based on absorbance. […]
In vivo pharmacokinetic/pharmacodynamic (PK/PD) studies were carried out in a similar manner using U87MG tumor cells (glioma cancer cell line with a PTEN null mutation) and the corresponding tumor-bearing xenograft mice, and compounds of the invention were determined to be active in this assay. […]

pAkt(T308) = experiment: In-cell Western assay, pAkt(T308), U87MG cells; format: cell-based; settings: Homo sapiens, U-87 MG, read-out: inhibition of pAkt(T308), IC50
Protocol: Cells from human prostate cancer cell line PC3 (American Type Culture Collection (ATCC), Manassas, Va. 20108 USA) were seeded at an optimal density of 22,000 cell/well in 96-well plates containing Ham's F12K medium (90 μL) and incubated overnight. The compound dilutions were carried out in 100% DMSO followed by a dilution in the medium. Test compounds were added in serial dilutions to the wells and incubated for 2 hours. The cells were washed and fixed with 4% paraformaldehyde. After incubation at room temperature for 1 hour in the dark, blocking was done for 2 hours at room temperature. […] IC50 values were calculated using a sigmoidal dose-response curve fit in GraphPad Prism® v5 software.
In-cell Western assays for pAkt(T308) and pS6RP were also carried out in a glioma cancer cell line with a PTEN null mutation (U87MG cells), in a similar manner to the protocol described above for PC3 cells, in order to assess the ability of the compounds to inhibit the Akt-pathway in a glioma cancer cell line. […] Compounds of the invention cause inhibition of pAkt(T308), pAkt(S473) and pS6RP in U87MG, BT474 and T47D cell lines as determined by these assays.

Compound	suppression of pAKT (S473) (pAKT (S473))	IC50 (pAkt(T308))
CC(=O)Nc1cccc(-c2cnc3c(N4CCOCC4)nc(-c4cnc(N)nc4)nc3c2)c1 [Example 3, N-(3-(2-(2-Aminopyrimidin-5-yl)-4-morpholinopyrido[3,2-d]pyrimidin-7-yl)-phenyl)acetamide]	suppression	< 500 nM
N#CC1(C(=O)Nc2cccc(-c3cnc4c(N5CCOCC5)nc(-c5cnc(N)nc5)nc4c3)c2)CC1 [Example 61, N-(3-(2-(2-amino-pyrimidin-5-yl)-4-morpholinopyrido[3,2-d]pyrimidin-7-yl)phenyl)-1-cyanocyclopropane-carboxamide]	suppression	
